Assay results as given in patent US10894777B2, “TG2 inhibitor piperazine compounds and uses thereof” (UNIVERSITY OF OTTAWA, priority 2016, dated 2021).

Key:
[1] = system: shRNA-transduced U87, U251 and T98G cells; assay: Agarose colony formation assay, TG2 shRNA-transduced cells; type: cell-based, human; conditions: 10 μM, 2 weeks
Description: Lentiviral vectors. Lentiviral knockdown vectors were prepared and used as previously described (Gundemir, S. et al., PLoS ONE 4(7):e6123, 2009; Barde, I. et al., Curr. Protoc. Neurosci. Chapter 4, Unit 4.21, 1-23, 2010).
Agarose colony formation assay. Agarose colony formation assay was conducted as described (Horman, S. R. et al., J. Biomol. Screen 18(10):1298-308, 2013; Zhang, K. et al., Tumour Biol. 35(3):2537-48, 2014) using 6-well plates and 5,000 cells in each well. 10 μM NC9 or DMSO was added to every layer at the start of the experiments. 2 mL liquid MEM containing 10 μM NC9 or DMSO was used to cover the agarose and it was changed 3 times a week. Colony growth was monitored every day and at the end of 10-15 days, the colonies were fixed with 4% paraformaldehyde, stained with 0.005% crystal violet, washed with PBS twice and 40 random pictures were taken from each treatment group. A person blinded for the treatments measured the area of the colonies using ImageJ program and the volumes were calculated from the area data under the assumption that the colonies are perfect spheres. The volumes were used to compare the effect of NC9 on colony growth.

SCC-13 cells = assay: EMT marker immunoblot, SCC-13 cells; type: cell-based, human; conditions: 20 μM, 48 h
Description: In (A), SCC-13 cells (500,000) were plated in monolayer culture in spheroid medium in 100 mm dishes. Fresh spheroid medium containing 0 or 20 μM NC9 was added at time zero and again at 24 h. After 48 h lysates were collected for electrophoresis and immunoblot. In (B), SCC-13 cells were pretreated with 0 or 20 μM NC9 for 2 h and then harvested and plated (25,000 cells) in the upper chamber in 1 mL of medium, above a matrigel-coated membrane, in a Millicell chamber. After 30 h. the inside of membrane was harvested and the nuclei of migrated cells on the bottom of the membrane were counted using an inverted fluorescent microscope. The values are mean±SEM, n=3 (p, 0.05). In (C), SCC-13 (2 million) cells were plated in spheroid medium in 100 mm dishes and grown as monolayer cultures. Confluent monolayers were then scratched with a 10-μL pipette tip and wound width was monitored for 0-18 h.
Immunoblot. […] Blots were rinsed and then incubated with secondary antibody (diluted 1:5000) for 2 h. Secondary antibody binding was visualized using ECL Prime chemiluminescence detection technology (Amersham).

A431 cells = assay: Spheroid formation assay, A431 cells; type: cell-based, human; conditions: 20 μM, 48 h on day 8 spheroids
Description: In (A), it is shown that A431-derived ECS cells have elevated TG2 and mesenchymal markers. A431 cells (40,000 cells/well) were grown in spheroid media in monolayer conditions or as non-attached spheroids (ECS cells) for 10 d. Cells were harvested and lysates prepared for immunoblot. In (B), A431 cells were electroporated with 3 μg of control- or TG2-siRNA and at 72 h extracts were prepared to assay TG2 and EMT marker level. In (C), A431-derived ECS cells were electroporated with 3 μg of the indicated siRNA and then grown as spheroids for 96 h. […] In (D), A431 cells (500,000 cells/well) were plated in monolayer culture in spheroid media in 100 mm dishes. The following day, at time zero, 0 or 20 μM NC9 was added with fresh addition of medium and NC9 at 24 h. At 48 h the cells were harvested and extracts prepared for immunoblot. In (E), A431 cells were pretreated in 0 or 20 μM NC9 for 2 h and then harvested and 25,000 cells were seeded in the upper chamber above a matrigel-coated membrane in 1 mL of growth medium containing 1% FCS in a Millicell chamber. […] Confluent monolayers were then scratched with a 10-μL pipette tip, rinsed, and width of the wound was monitored for 0-14 h.
Spheroid formation assay. […] Spheroid size and number was monitored with time in culture as previously described (Adhikary, G. et al., PLoS One 8:e84324, 2013).

TG2 = molecular target: T1, TG2 (Homo sapiens, UniProt P21980); assay: Inhibition irreversibility (filtration, dilution, activity assay); type: biochemical; conditions: after filtration over 10-kDa membrane and dilution
T1 sequence (P21980 1-687): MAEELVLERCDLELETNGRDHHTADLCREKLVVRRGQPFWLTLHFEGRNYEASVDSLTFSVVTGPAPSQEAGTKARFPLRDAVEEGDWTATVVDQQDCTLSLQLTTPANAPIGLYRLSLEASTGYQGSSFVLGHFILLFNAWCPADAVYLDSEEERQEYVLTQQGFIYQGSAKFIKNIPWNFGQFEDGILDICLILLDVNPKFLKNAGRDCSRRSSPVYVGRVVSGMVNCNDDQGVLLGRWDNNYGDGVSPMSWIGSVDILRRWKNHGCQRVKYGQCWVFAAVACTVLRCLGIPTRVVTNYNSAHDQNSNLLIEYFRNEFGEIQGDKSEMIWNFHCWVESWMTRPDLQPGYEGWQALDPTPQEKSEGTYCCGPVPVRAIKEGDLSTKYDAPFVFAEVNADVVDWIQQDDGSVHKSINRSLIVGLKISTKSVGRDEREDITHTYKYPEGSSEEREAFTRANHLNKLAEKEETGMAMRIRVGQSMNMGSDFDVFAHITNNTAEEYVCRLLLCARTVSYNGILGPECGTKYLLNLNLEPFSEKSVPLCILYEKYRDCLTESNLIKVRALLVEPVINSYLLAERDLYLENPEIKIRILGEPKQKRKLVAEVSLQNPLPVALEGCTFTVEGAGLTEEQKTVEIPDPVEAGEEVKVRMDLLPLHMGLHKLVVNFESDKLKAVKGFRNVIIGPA
Source text: Inhibition irreversibility.

Question: With `C=CC(=O)NCCCC[C@H](NC(=O)OCc1ccccc1)C(=O)NCCOCCOCCNS(=O)(=O)c1cccc2c(N(C)C)cccc12` [NC9] as the compound, how does the “growth-retarding effect when TG2 expression is silenced” value [1] read?
Answer: Its value is “completely lost”.

Question: And the E-cadherin level (SCC-13 cells)?
Answer: The E-cadherin level was “elevated”.

Question: What about the “EMT transcription factor and EMT marker levels” value (SCC-13 cells) of the same compound?
Answer: Its value is “reduced EMT transcription factor (Twist, Snail, Slug) and EMT marker (vimentin, fibronectin, N-cadherin, HIF-1α) levels”.

Question: And the spheroid formation (A431 cells)?
Answer: Its spheroid formation is “reduced spheroid formation”.

Question: `C=CC(=O)NCCCC[C@H](NC(=O)OCc1ccccc1)C(=O)N1CCN(S(=O)(=O)c2cccc3c(N(C)C)cccc23)CC1` [VA4, (S)-benzyl(6-acrylamido-1-(4-((5-(dimethylamino)naphthalen-1-yl)sulfonyl)piperazin-1-yl)-1-oxohexan-2-yl)carbamate] was tested. Which “recovered activity of inhibited hTG2” value (TG2) did it give?
Answer: The value was “no recovered activity”.
